Experimental data from paper PMC4865820, “Branched Peptide, B2088, Disrupts the Supramolecular Organization of Lipopolysaccharides and Sensitizes the Gram-negative Bacteria” (Scientific Reports, 2016).
Positions of bridges follow the written chain, without caps; N, C: chain ends. Residues, ends and D or L forms follow the SMILES beside them. Chains are numbered I, II in the order given.

Tests used:
[1] = system: LPS (E. coli serotype 055:B5); test: BODIPY TR cadaverine (BC) displacement assay with LPS; type: binding; details: no unit in table; ED50 values in μM; 5 mM HEPES pH 7.4; duplicates; read-out: BC50 (LPS binding)
How it was run: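 Peptides (0.02–25.6 μM, two-fold dilutions) mixed 1:1 with BODIPY TR cadaverine:LPS (E. coli 055:B5) mixture in 5 mM HEPES pH 7.4; fluorescence at 580/620 nm. Displacement normalized to polymyxin B (Fmax) and probe:LPS alone (F0); ED50 from curve fit, duplicates.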

P. aeruginosa ATCC 27853 [2] = test: microbe, parasite or virus in culture; type: cell-based; details: ATCC 27853, 24 h
Protocol: (§1) MIC of each peptide was determined using the microdilution method in a 96 well microtitre plates (SPL Life Sciences Co., Ltd, Korea). Two-fold serial dilutions of each peptide in Mueller-Hinton Broth (MHB) was prepared from a 1 mg/ml stock solution of the peptide in the same broth, to obtain a final concentration in the range of 0.0976–50 μg/ml in each well. Bacterial suspensions (P. aeruginosa ATCC 27853, P. aeruginosa 4877, P. aeruginosa 23155, K. pneumoniae ATCC 10031 and K. pneumoniae 4299) were prepared by suspending the overnight cultured bacteria in saline and adjusting the inoculum to ~10^8 colony forming units (CFU) per ml. A further 150-fold dilution was then prepared in MHB to achieve a final cell density of 10^5–10^6 CFU/ml. In each well, 100 μl of inoculum was mixed with the equal volume of peptides at their 2× concentration. Positive and negative controls contained 200 μl of inoculum (without any peptide) and broth alone (no peptide/inoculum) respectively. Another negative control in which MHB containing 200 μl of peptide alone in its highest concentration tested (50 μg/ml) was also included to ensure that the optical density measured in the test wells was not due to turbidity of the peptides in solution. The 96 well polystyrene plates were then incubated at 37 °C for 24 h and the optical density at 600 nm (OD600) was measured every 30 min continuously using a TECAN microplate reader (TECAN Infinite 200, Austria). All the experiments were performed in two independent duplicates and the MIC was determined as the lowest peptide concentration in which no visible growth was observed.

K. pneumoniae ATCC10031 = type: cell-based; details: ATCC10031, 24 h
Protocol: as §1

P. aeruginosa 23155 = type: cell-based; details: 23155, 24 h
Protocol: as §1

K. pneumonia 4299 = test: microbe, parasite or virus in culture; type: cell-based, K. pneumoniae; details: 24 h
Protocol: as §1

P. aeruginosa ATCC 27853 [3] = type: cell-based; details: ATCC 27853; for Fractional inhibitory concentration of peptide/PMB, combination with Genta: first number in parenthesis; for Fractional inhibitory concentration of antibiotic, Genta combination: second number in parenthesis
How it was run: (§2)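 Checkerboard combinations of peptide and antibiotic, each 2-fold diluted up to 1× MIC in MHB, were tested against ~10^6 CFU/ml final inoculum. Plates were incubated 24 h at 37 °C, with growth read at OD600. FICI was the sum of the combination-to-alone MIC ratios for each agent, and the lowest FICI from duplicate experiments was reported.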

P. aeruginosa DR4877/07 = type: cell-based; details: for Fractional inhibitory concentration of peptide/PMB, combination with Chloarm / Fractional inhibitory concentration of peptide/PMB, combination with Erythro / Fractional inhibitory concentration of peptide/PMB, combination with Levo / Fractional inhibitory concentration of peptide/PMB, combination with Tobra: first number in parenthesis; for Fractional inhibitory concentration of antibiotic, Chloarm combination / Fractional inhibitory concentration of antibiotic, Erythro combination / Fractional inhibitory concentration of antibiotic, Levo combination / Fractional inhibitory concentration of antibiotic, Tobra combination: second number in parenthesis
How it was run: as §2

P. aeruginosa ATCC 9027 = test: Outer membrane permeability assay (NPN); type: cell-based; details: no unit in table; Fig. S5 axis [Peptide], μM; 10 μM NPN, 5 mM HEPES pH 7.4, ex 355/em 405 nm; average of two titrations; read-out: PC50 (peptide concentration for half-maximal NPN intensity, OM permeability)
Protocol: The ability of each peptide to permeabilize the OM of Gram-negative organisms was determined using the hydrophobic fluorescent probe 1-N-phenylnaphthylamine (NPN) as previously reported. P. aeruginosa ATCC 9027 cells from an overnight MHB culture were harvested after centrifuging at 3000 rpm for 10 minutes. The pellet was washed twice, suspended in 5 mM HEPES (N- 2-hydroxyethylpiperazine-N’-2 ethanesulfonic acid) buffer (pH 7.4) and adjusted to an OD600 of 0.200. A suspension containing 600 μl of bacteria cells and 1 μl of a concentrated stock solution of NPN was mixed into a 10 mm stirred quartz cuvette so that the final concentration of the probe remained 10 μM. Aliquots containing 1 μl of each peptide in various concentrations (100, 50, 25, 15, 10, 5, 2.5 and 1 μg/ml) were added upon NPN dye stabilization. The fluorescence intensity was monitored using a Quanta Master spectrophotometer with a constant slit width of 0.5 nm, excitation and emission wavelengths set at 355 nm and 405 nm respectively. The peptide concentration required for half-maximal intensity (PC50) was determined by sigmoidal curve fitting using Graphpad Prism software. The experimental data is average of two independent titration experiments.

SMILES	EC50 [1] [µM]	Minimum Inhibitory Concentration against P. aeruginosa ATCC 27853 (P. aeruginosa ATCC 27853 [2]) [µM]	Minimum Inhibitory Concentration against K. pneumoniae ATCC10031 (K. pneumoniae ATCC10031) [µM]	Minimum Inhibitory Concentration against P. aeruginosa 23155 (P. aeruginosa 23155) [µM]	Minimum Inhibitory Concentration against K. pneumonia 4299 (K. pneumonia 4299) [µM]	Fractional inhibitory concentration of peptide/PMB, combination with Genta (P. aeruginosa ATCC 27853 [3])	Fractional inhibitory concentration of antibiotic, Genta combination (P. aeruginosa ATCC 27853 [3])	Fractional inhibitory concentration of peptide/PMB, combination with Chloarm (P. aeruginosa DR4877/07)	Fractional inhibitory concentration of peptide/PMB, combination with Erythro (P. aeruginosa DR4877/07)	Fractional inhibitory concentration of peptide/PMB, combination with Levo (P. aeruginosa DR4877/07)	Fractional inhibitory concentration of peptide/PMB, combination with Tobra (P. aeruginosa DR4877/07)	Fractional inhibitory concentration of antibiotic, Chloarm combination (P. aeruginosa DR4877/07)	Fractional inhibitory concentration of antibiotic, Erythro combination (P. aeruginosa DR4877/07)	Fractional inhibitory concentration of antibiotic, Levo combination (P. aeruginosa DR4877/07)	Fractional inhibitory concentration of antibiotic, Tobra combination (P. aeruginosa DR4877/07)	EC50 (P. aeruginosa ATCC 9027) [µM]
N=C(N)NCCC[C@H](NC(=O)CNC(=O)[C@@H](N)CCCNC(=N)N)C(=O)N[C@@H](CCCCN)C(=O)N[C@@H](Cc1ccccc1)C(=O)N[C@@H](Cc1ccccc1)C(=O)N[C@@H](CCCNC(=N)N)C(=O)N[C@@H](CCCNC(=N)N)C(=O)NCCCC[C@H](NC(=O)[C@H](CCCNC(=N)N)NC(=O)[C@H](CCCNC(=N)N)NC(=O)[C@H](Cc1ccccc1)NC(=O)[C@H](Cc1ccccc1)NC(=O)[C@H](CCCCN)NC(=O)[C@H](CCCNC(=N)N)NC(=O)CNC(=O)[C@@H](N)CCCNC(=N)N)C(=O)N[C@@H](CCCCN)C(=O)O (I: H-RGRKFFRRKK-OH / II: H-RGRKFFRR; amide I:9-II:C; N-terminus and C-terminus assumed)	0.93 ± 0.01	5.0	5.0	5.0	10.1	(0.25,0.25)	(0.25,0.25)	0.25	(0.5,0.5)	(0.5,0.5)	0.25	0.13	(0.5,0.5)	(0.5,0.5)	0.06	10 ± 0.3
CC(C)C[C@H](NC(=O)[C@H](CCCCN)NC(=O)[C@H](CCCNC(=N)N)NC(=O)CNC(=O)[C@@H](N)CCCNC(=N)N)C(=O)N[C@@H](CC(C)C)C(=O)N[C@@H](CCCNC(=N)N)C(=O)N[C@@H](CCCNC(=N)N)C(=O)NCCCC[C@H](NC(=O)[C@H](CCCNC(=N)N)NC(=O)[C@H](CCCNC(=N)N)NC(=O)[C@H](CC(C)C)NC(=O)[C@H](CC(C)C)NC(=O)[C@H](CCCCN)NC(=O)[C@H](CCCNC(=N)N)NC(=O)CNC(=O)[C@@H](N)CCCNC(=N)N)C(=O)N[C@@H](CCCCN)C(=O)O (I: H-RGRKLLRRKK-OH / II: H-RGRKLLRR; amide I:9-II:C; N-terminus and C-terminus assumed)	1.47 ± 0.02	2.7	5.3	2.7	5.3	(0.25,0.25)	(0.25,0.25)	0.25	(0.5,0.5)	0.5	(0.25,0.25)	0.13	(0.5,0.5)	0.06	(0.25,0.25)	17.5 ± 0.4
N=C(N)NCCC[C@H](NC(=O)CNC(=O)[C@@H](N)CCCNC(=N)N)C(=O)N[C@@H](CCCCN)C(=O)N[C@@H](Cc1c[nH]c2ccccc12)C(=O)N[C@@H](Cc1c[nH]c2ccccc12)C(=O)N[C@@H](CCCNC(=N)N)C(=O)N[C@@H](CCCNC(=N)N)C(=O)NCCCC[C@H](NC(=O)[C@H](CCCNC(=N)N)NC(=O)[C@H](CCCNC(=N)N)NC(=O)[C@H](Cc1c[nH]c2ccccc12)NC(=O)[C@H](Cc1c[nH]c2ccccc12)NC(=O)[C@H](CCCCN)NC(=O)[C@H](CCCNC(=N)N)NC(=O)CNC(=O)[C@@H](N)CCCNC(=N)N)C(=O)N[C@@H](CCCCN)C(=O)O (I: H-RGRKWWRRKK-OH / II: H-RGRKWWRR; amide I:9-II:C; N-terminus and C-terminus assumed)	6.8 ± 0.12	9.5	9.5	9.5	19	0.5	0.06	0.5	(0.5,0.5)	0.5	0.5	0.13	(0.5,0.5)	0.25	0.25	31.1 ± 4.6
N=C(N)NCCC[C@H](NC(=O)CNC(=O)[C@@H](N)CCCNC(=N)N)C(=O)N[C@@H](CCCCN)C(=O)N[C@@H](Cc1ccc(O)cc1)C(=O)N[C@@H](Cc1ccc(O)cc1)C(=O)N[C@@H](CCCNC(=N)N)C(=O)N[C@@H](CCCNC(=N)N)C(=O)NCCCC[C@H](NC(=O)[C@H](CCCNC(=N)N)NC(=O)[C@H](CCCNC(=N)N)NC(=O)[C@H](Cc1ccc(O)cc1)NC(=O)[C@H](Cc1ccc(O)cc1)NC(=O)[C@H](CCCCN)NC(=O)[C@H](CCCNC(=N)N)NC(=O)CNC(=O)[C@@H](N)CCCNC(=N)N)C(=O)N[C@@H](CCCCN)C(=O)O (I: H-RGRKYYRRKK-OH / II: H-RGRKYYRR; amide I:9-II:C; N-terminus and C-terminus assumed)	2.5 ± 0.04	4.5	4.5	4.5	9.0	(0.25,0.25)	(0.25,0.25)	0.25	0.5	0.5	0.25	0.13	0.06	0.25	0.13	21.9 ± 0.2
